Measured values published in patent publication US5659055A, “Cytoprotective fatty moiety compounds” (Virginia Commonwealth University, priority 1995, dated 1997).

Columns and labels:
[1] = Autooxidation of phosphatidylethanolamine
[2] = system: Human SF-PLA2 Induced Mouse Paw Edema; experiment: Human SF-PLA2 induced mouse paw edema, oral administration; assay type: in vivo
Protocol: The mouse paw edema is inhibited in dose related fashion by increasing concentrations of RISE-1 given orally 1.0 hours before induction of the edema by SF-PLA2.

[3] = Oxidation of arachidonic acid (decreased turbidity and hydroperoxide formation)

Compound | effect on the autooxidation of phosphatidylethanolamine [1] | oral antiinflammatory activity in this model of edema [2] | effect on the autooxidation of arachidonic acid [3]
CCCCCCCC/C=C\CCCCCCCC(=O)OC(C/C=C\CCCCCCCC(=O)O)CCCCCC (stereo not drawn) [RAOA, Ricinoleic Acid--Oleic Acid Ester] | effective inhibitors | – | –
CCCCC/C=C\C/C=C\CCCCCCCC(=O)OC(C/C=C\CCCCCCCC(=O)O)CCCCCC (stereo not drawn) [RALA, Ricinoleic acid--Linoleic Acid Ester] | effective inhibitors | – | –
CCCCCCCC/C=C\CCCCCCCCOC(=O)CCCCCCC/C=C\CC(CCCCCC)OC(=O)/C=C/C(=O)O (stereo not drawn) [OA1RAFA, Oleyl Alcohol-Ricinoleate-Fumaric Acid Diester] | effective inhibitors | – | –
CCCCCCC(C/C=C\CCCCCCCC(=O)O)OC(=O)CCCCCCCCC(=O)O (stereo not drawn) [RISE-1, Ricinoleic Acid--Sebacyl Ester] | no effect | has oral antiinflammatory activity | no effect
